Measurements: PMC7377962 (Nature chemical biology, 2020)

Biological target: T1, Mur23 (Streptomyces sp. NRRL 30471, UniProt F2WUD5)
T1 sequence (F2WUD5 1-388): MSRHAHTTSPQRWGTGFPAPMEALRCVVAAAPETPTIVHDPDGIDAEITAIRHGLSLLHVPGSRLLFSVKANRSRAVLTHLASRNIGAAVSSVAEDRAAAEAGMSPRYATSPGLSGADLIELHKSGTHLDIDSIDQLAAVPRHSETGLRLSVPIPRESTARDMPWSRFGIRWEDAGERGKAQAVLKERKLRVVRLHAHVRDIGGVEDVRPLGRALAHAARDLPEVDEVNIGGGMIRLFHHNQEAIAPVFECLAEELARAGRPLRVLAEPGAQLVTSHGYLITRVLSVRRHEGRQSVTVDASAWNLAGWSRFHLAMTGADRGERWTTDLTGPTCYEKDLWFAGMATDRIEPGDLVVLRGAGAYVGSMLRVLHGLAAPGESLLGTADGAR
Experiment: co-purification, UV/Vis spectrum
Assay type: binding
Details: bound as purified

Question: Which “co-purification, UV/Vis spectrum” value does the source give for `Cc1ncc(COP(=O)(O)O)c(C=O)c1O` [PLP, pyridoxal-5′-phosphate] here?
Answer: Its value is “Mur23 copurified with PLP as evident by the yellow color and the characteristic UV/Vis spectrum”.
